This is an account of results in US20240417743A1, “METHODS FOR IMPROVING GENOME ENGINEERING AND REGENERATION IN PLANT” (KWS SAAT SE & Co. KGaA, priority 2018, published 2024).

The data set concerns maize WUS2 promoter. Kind of data set: Maize WUS2 promoter tDT report construct co-bombardment. It counts as cell-based. From the text: Homeobox domain transcriptional factor WUSCHEL (WUS) plays an important role in establishing and maintaining of shoot meristem. To identify boost factors that promote endogenous WUS2 expression, the maize WUSCHEL 2 promoter report construct (pAMK-ZmWUS2-tDT-noT) (SEQ ID NO: 43; FIG. 13) was used to illustrate maize WUS2 promoter activity. The maize WUS2 promoter (pZmWUS2) drove expression of the tDT report gene in this report construct (FIG. 13). The WUS2 promoter report construct was co-bombarded with boost factors individually in maize immature embryos and leaf segments.
Fresh leaf segments of 1-2 cm in length were prepared from the in vitro-cultured maize A188 seedling of 10-14 days old, and placed on the Osmotic medium with abaxial side up for 4 hours. For co-bombardment, two plasmids (100 ng of ZmWUS2 promoter report (FIG. 13) and 100 ng of boost construct, e.g. TaRKD4 (FIG. 5)) were premixed and coated onto 100 μg of gold particles size 0.4 μm. Immature embryo preparation, bombardment, and post-bombardment culturing were carried out as described in Example 1 and Example 2. Red fluorescence showing tDT expression was monitored using a fluorescent microscope started at 16 hours after bombardment.

Where [1] appears, read: A188 leaf segments, after bombardment.

“wheat RKD4: wheat RKD4 boost gene, expression construct pABM-BdEF1-TaRKD4 (SEQ ID NO: 28)”: under setting [1], the “time at which tDT signal peaked” value was “around 44 hours” and the “time at which tDT signal was detected” value is reported as “around 36 hours”. For the same substance, for the setting “immature embryos and leaf segments”, the “activation of maize WUS2 genes” value is given as “strongly activate”. Also, the “tDT red fluorescent signals” value (immature embryos, 44 hours after bombardment, compared to WUS promoter reporter only) is on record as “extremely strong red fluorescent signals”.
